Source: US8268885B2, “Entry inhibitors of the HIV virus” (priority 2003, dated 2012)

Tests used:
Format in all cases: cell-based
HIV = experiment: anti-viral replication assay using MT4-LTR-EGFP cells; details: Human immunodeficiency virus 1, read-out: antiviral EC50
Description: (§1) The compounds were tested in the anti-viral replication assay using the MT4-LTR-EGFP cells and in the ERA assay. Toxicity was measured using MT4-CMV-EGFP cells.

[1] = system: cell-cell fusion between cell line persistently expressing HIV and a cell line expressing CD4 and CXCR4; experiment: entry reporter assay (ERA): inhibition of cell-cell fusion, FACS read-out; details: for EC50: Human immunodeficiency virus 1, read-out: ERA assay EC50; for ERA assay % inh: cell-cell fusion, concentration not given
Description: as §1

[2] = toxicity assay using MT4-CMV-EGFP cells (reduced expression of GFP reporter); details: human
Description: A toxicity assay wherein a reduced expression of the GFP reporter protein (Mt4-CMV-EGFP cells) serves as a marker for cellular toxicity of a test compound can be used to measure the toxicity of the present compounds.
as §1

| SMILES | EC50 (HIV) | EC50 [1] | ERA assay % inh [1] | CC50 [2] |
| --- | --- | --- | --- | --- |
| O=C(COc1ccccc1)Nc1ccc(Oc2cccc3c2N(C(=O)COc2ccccc2)CCC3)cc1 [Compound 20] | 3.25 µM | > 100 µM | 39% | > 32 µM |
| O=C(COc1ccccc1)Nc1ccc(Oc2ccc(NC(=O)c3cccc([N+](=O)[O-])c3)cc2)cc1 [Compound 31] | 0.43 µM | > 100 µM | 13% | 3.41 µM |
| CC(=O)OCC(=O)Nc1ccc(Oc2ccc(NC(=O)COc3ccccc3)cc2)cc1 [Compound 35] | 3.28 µM | 150 µM | 55% | 23.6 µM |
| O=C(COc1ccccc1)NCc1cccc(Oc2ccc(NC(=O)COc3ccccc3)cc2)c1 [Compound 42] | 3.77 µM | > 200 µM | 37% | 46.5 µM |
| N#Cc1ccc(C(=O)Nc2ccc(Oc3cccc4cnccc34)cc2)cc1 [Compound 5] | 3.29 µM | – | – | > 100 µM |
| COc1ccc(S(=O)(=O)Nc2ccc(Oc3ccc(NC(=O)COC(C)=O)cc3)cc2)cc1 [Compound 1, acetic acid {4-[4-(4-methoxy-benzenesulfonylamino)-phenoxy]-phenylcarbamoyl}-methyl ester] | 1.69 µM | 92 µM | 89% | > 27.7 µM |
| O=C(CNCCN1CCCC1)Nc1ccc(Oc2cccc3c2N(C(=O)CNCCN2CCCC2)CCC3)cc1 [Compound 7] | 57.7 µM | > 200 µM | 29% | > 100 µM |
| O=C(CN[C@@H](Cc1ccccc1)C(=O)O)Nc1ccc(Oc2cccc(C(=O)O)c2)cc1C(F)(F)F [Compound 8] | > 100 µM | > 200 µM | 3% | > 100 µM |
| COc1cccc(C(=O)Nc2ccc(Oc3ccc(NC(=O)c4cccc(OC)c4)cc3)cc2)c1 [Compound 11] | > 32 µM | 68.9 µM | 64% | > 32 µM |
| CCCCc1ccc(C(=O)NCc2cccc(Oc3ccc(NC(=O)c4ccc(CCCC)cc4)cc3)c2)cc1 [Compound 44] | 2 µM | > 200 µM | 22% | > 32 µM |
| COc1ccc(S(=O)(=O)Nc2ccc(Oc3ccc(NC(=O)Cc4ccccc4)cc3)cc2)cc1 [Compound 39] | 1.56 µM | > 100 µM | 45% | > 100 µM |
| O=C(Nc1ccc(Oc2cccc3c2N(C(=O)c2ccco2)CCC3)cc1)c1ccco1 [Compound 23, Furan-2-carboxylic acid {4-[1-(furan-2-carbonyl)-1,2,3,4-tetrahydro-quinolin-8-yloxy]-phenyl}-amide] | 11.2 µM | 123 µM | 92% | 34.2 µM |
| O=C(COc1ccccc1)Nc1ccc(Oc2ccc(NC(=O)c3ccc4c(c3)OCO4)cc2)cc1 [Compound 32] | 4.17 µM | > 200 µM | 29% | 19.9 µM |
| O=C(COc1ccccc1)Nc1ccc(Oc2ccc(NC(=O)Cc3ccccc3)cc2)cc1 [Compound 33] | 5.01 µM | 196 µM | 52% | 30.2 µM |
| COc1ccc(S(=O)(=O)Nc2ccc(Oc3ccc(NC(=O)c4cccc(OC)c4)cc3)cc2)cc1 [Compound 36] | 1.05 µM | > 200 µM | 9% | 5.87 µM |
| O=C(Nc1ccc(Oc2cccc3cnccc23)cc1)c1ccc([N+](=O)[O-])cc1 [Compound 4] | 5.34 µM | > 200 µM | 30% | > 100 µM |
| CN1CCN(CC(=O)Nc2ccc(Oc3ccc(NC(=O)CN4CCN(C)CC4)cc3)cc2)CC1 [Compound 16] | 55 µM | > 200 µM | 42% | > 100 µM |
| O=C(COc1ccccc1)Nc1ccc(Oc2ccc([N+](=O)[O-])cc2)cc1 [Compound 24] | 19.5 µM | 78.4 µM | 68% | > 100 µM |
| O=C(Cc1ccccc1)Nc1ccc(Oc2ccc(NC(=O)Cc3ccccc3)cc2)cc1 [Compound 10] | > 32 µM | > 100 µM | 48% | > 32 µM |
| COc1cccc(C(=O)Nc2ccc(Oc3ccc(NC(=O)COc4ccccc4)cc3)cc2)c1 [Compound 30] | 0.37 µM | – | – | 3.85 µM |
| O=C(COc1ccccc1)Nc1ccc(Oc2ccc(NC(=O)c3ccco3)cc2)cc1 [Compound 34] | 1.24 µM | > 200 µM | 41% | 83.2 µM |
| CCCCc1ccc(C(=O)Nc2ccc(Oc3cccc4c3N(C(=O)c3ccc(CCCC)cc3)CCC4)cc2)cc1 [Compound 21] | > 34 µM | > 200 µM | 9% | > 100 µM |
| O=C(O)c1ccc(S(=O)(=O)Nc2ccc(Oc3cccc4cnccc34)cc2)cc1 [Compound 6] | 18.6 µM | 182 µM | 52% | > 100 µM |
| O=C(COCc1ccccc1)NCc1cccc(Oc2ccc(NC(=O)COCc3ccccc3)cc2)c1 [Compound 43] | 11.8 µM | 83.6 µM | 54% | > 32 µM |
| COc1ccc(S(=O)(=O)Nc2ccc(Oc3ccc([N+](=O)[O-])cc3)cc2)cc1 [Compound 29] | 1.18 µM | 177 µM | 59% | 61.6 µM |
| COc1ccc(S(=O)(=O)Nc2ccc(Oc3ccc(NC(=O)c4cccc([N+](=O)[O-])c4)cc3)cc2)cc1 [Compound 37] | 3.92 µM | – | – | > 32 µM |
| O=C(Nc1ccc(Oc2ccc(NC(=O)c3cccc([N+](=O)[O-])c3)cc2)cc1)c1cccc([N+](=O)[O-])c1 [Compound 12] | 41.3 µM | > 200 µM | 17% | 54.2 µM |
| COc1ccc(S(=O)(=O)Nc2ccc(Oc3ccc(NC(=O)c4ccco4)cc3)cc2)cc1 [Compound 40] | 0.15 µM | 40.9 µM | 79% | 22.4 µM |
